Laboratory results reported in patent publication US20260325685A1, “Radiopharmaceutical Compositions Targeting Carbonic Anhydrase IX and Uses Thereof” (RayzeBio, Inc., priority 2023, published 2026).
Where two headings read alike, the source gives them in different places.

Tests used:
[1] = biological target: T1, human CA-IX (Homo sapiens, UniProt Q16790); experiment: Surface Plasmon Resonance (SPR) binding kinetics to recombinant human CA-IX (Biacore 8K, single-cycle kinetics, 1:1 binding model)
T1 construct: purchased Acro CA9-H82E3
Outline: (§1)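 At 25° C, compound was injected at nine concentrations from 100 to 0.39 nM (PBS-P+ pH 7.4, 1% DMSO) over streptavidin-captured recombinant human CA-IX or CA-XII (1200-1800 RU). Association 120 s, dissociation 1200 s, single-cycle format; association and dissociation constants from 1:1 kinetic fits.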

[2] = biological target: T2, human CA-XII (Homo sapiens, UniProt O43570); experiment: Surface Plasmon Resonance (SPR) binding kinetics to recombinant human CA-XII (Biacore 8K, single-cycle kinetics, 1:1 binding model)
T2 construct: purchased Creative BioMart CA12-261H
T2 sequence (O43570 25-354): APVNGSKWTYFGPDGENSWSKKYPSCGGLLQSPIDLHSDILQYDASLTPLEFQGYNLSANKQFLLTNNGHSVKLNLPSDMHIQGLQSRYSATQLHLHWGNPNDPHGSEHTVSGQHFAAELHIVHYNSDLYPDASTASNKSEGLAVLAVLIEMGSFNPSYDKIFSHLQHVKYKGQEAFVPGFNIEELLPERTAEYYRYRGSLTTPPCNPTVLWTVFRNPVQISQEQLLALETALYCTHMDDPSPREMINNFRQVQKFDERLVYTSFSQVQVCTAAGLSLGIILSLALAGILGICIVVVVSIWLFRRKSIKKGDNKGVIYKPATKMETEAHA
Outline: as §1

[3] = read-out: CAIX KD; Chelated Metal: Lu-175; SPR, 25° C., pH 7.4
[4] = read-out: CAXII KD, Chelated Metal: Lu-175, 25° C., pH 7.4
[5] = Chelated Metal: Lu-175; SPR, 25° C., pH 7.4; read-out: CAIX KD
[6] = Chelated Metal: Lu-175, 25° C., pH 7.4, read-out: CAXII KD

Row | SMILES | Kd [1, 5] | Kd [2, 6] | further results
1 | NS(=O)(=O)c1nnc(NC(=O)C23CC(c4cn(CCNC(=O)[C@@H]5CN(C(=O)CN6CCN(CC(=O)O)CCN(CC(=O)O)CCN(CC(=O)O)CC6)CCN5C(=O)C[C@H](Nc5ncc(C(=O)NCc6ccc(S(F)(F)(F)(F)F)cc6)cn5)C(=O)O)nn4)(C2)C3)s1.[Lu+3] [Compound 111] |  |  | Kd [1, 3]: 2.5 to 10 nM; Kd [2, 4]: > 10 nM
2 | CC(CCCC(=O)N1CCC(C(N)=O)(C(=O)NCC(=O)N2CCN(C(=O)CN3CCN(CC(=O)O)CCN(CC(=O)O)CCN(CC(=O)O)CC3)C[C@@H]2C(=O)NCCn2nnc(C34CC(C(=O)Nc5nnc(S(N)(=O)=O)s5)(C3)C4)c2C(=O)O)CC1)(c1ccc(O)cc1)c1ccc(O)cc1.[Lu+3] [Compound 107.59] | < 1 nM | > 10 nM | 
3 | CC(CCC(=O)N[C@@H](CC(=O)N[C@@H](CC(=O)N1CCN(C(=O)CN2CCN(CC(=O)O)CCN(CC(=O)O)CCN(CC(=O)O)CC2)C[C@H]1C(=O)NCC(=O)N1CCC2(CC1)CC(C(=O)Nc1nnc(S(N)(=O)=O)s1)C2)C(=O)O)C(=O)O)(c1ccc(O)cc1)c1ccc(O)cc1.[Lu+3] [Compound 119] |  |  | Kd [1, 3]: 2.5 to 10 nM; Kd [2, 4]: > 10 nM
4 | NS(=O)(=O)c1nnc(NC(=O)C23CC(c4cn(CCNC(=O)[C@@H]5CN(C(=O)CN6CCN(CC(=O)O)CCN(CC(=O)O)CCN(CC(=O)O)CC6)CCN5C(=O)CNC(=O)C5(C(=O)O)CCN(C(=O)c6n[nH]c7ccccc67)CC5)nn4)(C2)C3)s1.[Lu+3] [Compound 112.10] | < 1 nM | > 10 nM | 
5 | NS(=O)(=O)c1nnc(NC(=O)C23CC(c4cn(CCNC(=O)[C@@H]5CN(C(=O)CN6CCN(CC(=O)O)CCN(CC(=O)O)CCN(CC(=O)O)CC6)CCN5C(=O)CNC(=O)C5(C(=O)O)CCN(C(=O)c6ccc(C7CC7)cc6)CC5)nn4)(C2)C3)s1.[Lu+3] [Compound 112.9] | < 1 nM | > 10 nM | 
6 | CC(CCC(=O)N[C@@H](CC(=O)N[C@@H](CC(=O)NC1(C(=O)NCCOCCOCCNC(=O)CN2CCN(CC(=O)O)CCN(CC(=O)O)CCN(CC(=O)O)CC2)CN(C(=O)Cn2cc(CCCC(=O)Nc3nnc(S(N)(=O)=O)s3)nn2)C1)C(=O)O)C(=O)O)(c1ccc(O)cc1)c1ccc(O)cc1.[Lu+3] [Compound 103] |  |  | Kd [1, 3]: 1 to 2.5 nM; Kd [2, 4]: 2.5 to 10 nM
7 | CC(CCC(=O)N[C@@H](CC(=O)N[C@@H](CC(=O)N1CCN(C(=O)[C@H](CCC(=O)NCCOCCOCCOCCOCCOCCOCCOCCOCCC(=O)N[C@@H](CCCCNC(=O)CCCc2ccc(Cl)cc2)C(=O)O)NC(=O)CN2CCN(CC(=O)O)CCN(CC(=O)O)CCN(CC(=O)O)CC2)C[C@H]1C(=O)NCCn1cc(C23CC(C(=O)Nc4nnc(S(N)(=O)=O)s4)(C2)C3)nn1)C(=O)O)C(=O)O)(c1ccc(O)cc1)c1ccc(O)cc1.[Lu+3] (racemic) [Compound 125.1] | 2.5 to 10 nM | > 10 nM | 
8 | NS(=O)(=O)c1nnc(NC(=O)C23CC(c4cn(CCNC(=O)[C@@H]5CN(C(=O)CN6CCN(CC(=O)O)CCN(CC(=O)O)CCN(CC(=O)O)CC6)CCN5C(=O)C[C@H](NC(=O)C[C@H](NC(=O)CCCc5ccc(I)cc5)C(=O)O)C(=O)O)nn4)(C2)C3)s1.[Lu+3] [Compound 109.14] | < 1 nM | 2.5 to 10 nM | 
9 | CC(CCC(=O)N[C@@H](CC(=O)N[C@@H](CC(=O)N1CCN(C(=O)CCOCCOCCOCCOCCN(CCOCCOCCOCCOCCC(=O)N2CCN(C(=O)C[C@H](NC(=O)C[C@H](NC(=O)CCC(C)(c3ccc(O)cc3)c3ccc(O)cc3)C(=O)O)C(=O)O)[C@H](C(=O)NCCn3cc(C45CC(C(=O)Nc6nnc(S(N)(=O)=O)s6)(C4)C5)nn3)C2)C(=O)CN2CCN(CC(=O)O)CCN(CC(=O)O)CCN(CC(=O)O)CC2)C[C@H]1C(=O)NCCn1cc(C23CC(C(=O)Nc4nnc(S(N)(=O)=O)s4)(C2)C3)nn1)C(=O)O)C(=O)O)(c1ccc(O)cc1)c1ccc(O)cc1 [Compound 131.1] |  |  | Kd ([1]; Chelated Metal: None; SPR, 25° C., pH 7.4; read-out: CAIX KD): < 1 nM; Ratio (CAXII/CAIX) ([1]; KD ratio CAXII/CAIX; Chelated Metal: None): * (1 < * < 5); Kd ([2]; Chelated Metal: None, 25° C., pH 7.4, read-out: CAXII KD): < 1 nM
10 | CC(CCC(=O)N1CCC(C(=O)O)(C(=O)NCC(=O)N2CCN(C(=O)CN3CCN(CC(=O)O)CCN(CC(=O)O)CCN(CC(=O)O)CC3)C[C@@H]2C(=O)NCCn2cc(C34CC(C(=O)Nc5nnc(S(N)(=O)=O)s5)(C3)C4)nn2)CC1)(c1ccc(O)cc1)c1ccc(O)cc1.[Lu+3] [Compound 107.4] | 1 to 2.5 nM | > 10 nM | 
11 | NS(=O)(=O)c1nnc(NC(=O)C23CC(c4cn(CCNC(=O)[C@@H]5CN(C(=O)CN6CCN(CC(=O)O)CCN(CC(=O)O)CCN(CC(=O)O)CC6)CCN5C(=O)C[C@H](NC(=O)C[C@H](NC(=O)c5ccc(C6(C(F)(F)F)CC6)cn5)C(=O)O)C(=O)O)nn4)(C2)C3)s1.[Lu+3] [Compound 109.25] | < 1 nM | 2.5 to 10 nM | 
12 | NS(=O)(=O)c1nnc(NC(=O)C23CC(c4cn(CCNC(=O)[C@@H]5CN(C(=O)CN6CCN(CC(=O)O)CCN(CC(=O)O)CCN(CC(=O)O)CC6)CCN5C(=O)C[C@H](NC(=O)C[C@H](NC(=O)c5n[nH]c6ccc(O)cc56)C(=O)O)C(=O)O)nn4)(C2)C3)s1.[Lu+3] [Compound 109.31] | < 1 nM | 2.5 to 10 nM | 
13 | NS(=O)(=O)c1nnc(NC(=O)C23CCC(c4cn(CCNC(=O)[C@@H]5CN(C(=O)CN6CCN(CC(=O)O)CCN(CC(=O)O)CCN(CC(=O)O)CC6)CCN5C(=O)CC[C@H](NC(=O)C[C@H](NC(=O)C5CC6(CCC6)C5)C(=O)O)C(=O)O)nn4)(CC2)CC3)s1.[Lu+3] [Compound 109.51] | < 1 nM | < 1 nM | 
14 | CC(CCC(=O)N[C@@H](CC(=O)N[C@@H](CC(=O)NC1(CCCCn2cc(CCCC(=O)Nc3nnc(S(N)(=O)=O)s3)nn2)CCN(C(=O)CN2CCN(CC(=O)O)CCN(CC(=O)O)CCN(CC(=O)O)CC2)CC1)C(=O)O)C(=O)O)(c1ccc(O)cc1)c1ccc(O)cc1.[Lu+3] [Compound 116] |  |  | Kd [1, 3]: 1 to 2.5 nM; Kd [2, 4]: 2.5 to 10 nM
15 | NS(=O)(=O)c1nnc(NC(=O)C23CC(c4cn(CCNC(=O)[C@@H]5CN(C(=O)CN6CCN(CC(=O)O)CCN(CC(=O)O)CCN(CC(=O)O)CC6)CCN5C(=O)CNC(=O)C5(C(=O)O)CCN(C(=O)Cc6ccc(C7CC7)cc6)CC5)nn4)(C2)C3)s1.[Lu+3] [Compound 112.12] | 1 to 2.5 nM | > 10 nM | 
16 | CC(CCCC(=O)N1CCC(C(N)=O)(C(=O)NCC(=O)N2CCN(C(=O)CCOCCOCCOCCOCCN(CCOCCOCCOCCOCCC(=O)N3CCN(C(=O)CNC(=O)C4(C(N)=O)CCN(C(=O)CCCC(C)(c5ccc(O)cc5)c5ccc(O)cc5)CC4)[C@H](C(=O)NCCn4cc(C56CC(C(=O)Nc7nnc(S(N)(=O)=O)s7)(C5)C6)nn4)C3)C(=O)CNC(=O)CN3CCN(CC(=O)O)CCN(CC(=O)O)CCN(CC(=O)O)CC3)C[C@H]2C(=O)NCCn2cc(C34CC(C(=O)Nc5nnc(S(N)(=O)=O)s5)(C3)C4)nn2)CC1)(c1ccc(O)cc1)c1ccc(O)cc1.[Lu+3] [Compound 131] |  |  | Kd [1, 3]: < 1 nM; Kd [2, 4]: 2.5 to 10 nM
17 | NS(=O)(=O)c1nnc(NC(=O)C23CC(c4cn(CCNC(=O)[C@@H]5CN(C(=O)CN6CCN(CC(=O)O)CCN(CC(=O)O)CCN(CC(=O)O)CC6)CCN5C(=O)CNC(=O)C5(C(=O)O)CCN(C(=O)CCc6n[nH]c7ccccc67)CC5)nn4)(C2)C3)s1.[Lu+3] [Compound 112.4] | 2.5 to 10 nM | > 10 nM | 
18 | CC(CCC(=O)N[C@@H](CC(=O)N[C@@H](CC(=O)N1CCN(C(=O)CN2CCN(CC(=O)O)CCN(CC(=O)O)CCN(CC(=O)O)CC2)C[C@@H]1C(=O)NCCn1cc(C23CC(C(=O)Nc4nnc(S(N)(=O)=O)s4)(C2)C3)nn1)C(=O)O)C(=O)O)(c1ccc(O)cc1)c1ccc(O)cc1.[Lu+3] [Compound 107.3] | 1 to 2.5 nM | > 10 nM | 
19 | CC(CCCC(=O)N1CCC(C#N)(C(=O)NCC(=O)N2CCN(C(=O)CN3CCN(CC(=O)O)CCN(CC(=O)O)CCN(CC(=O)O)CC3)C[C@@H]2C(=O)NCCn2cc(C34CC(C(=O)Nc5nnc(S(N)(=O)=O)s5)(C3)C4)nn2)CC1)(c1ccc(O)cc1)c1ccc(O)cc1.[Lu+3] [Compound 107.31] | 1 to 2.5 nM | > 10 nM | 
20 | CC(CCC(=O)N[C@@H](CC(=O)N[C@@H](CC(=O)N1CCN(C(=O)CCOCCOCCOCCOCCOCCOCCOCCOCCNC(=O)CN2CCN(CC(=O)O)CCN(CC(=O)O)CCN(CC(=O)O)CC2)C[C@H]1C(=O)NCCn1cc(C23CC(C(=O)Nc4nnc(S(N)(=O)=O)s4)(C2)C3)nn1)C(=O)O)C(=O)O)(c1ccc(O)cc1)c1ccc(O)cc1.[Lu+3] [Compound 129] |  |  | Kd [1, 3]: 1 to 2.5 nM; Kd [2, 4]: > 10 nM
21 | CC(CCC(=O)N[C@@H](CC(=O)N[C@@H](CC(=O)N[C@@H](CCCn1cc(C23CCC(C(=O)Nc4nnc(S(N)(=O)=O)s4)(CC2)CC3)nn1)C(=O)NCCOCCOCCNC(=O)CN1CCN(CC(=O)O)CCN(CC(=O)O)CCN(CC(=O)O)CC1)C(=O)O)C(=O)O)(c1ccc(O)cc1)c1ccc(O)cc1.[Lu+3] [Compound 100.7] | < 1 nM | 1 to 2.5 nM | 
22 | NS(=O)(=O)c1nnc(NC(=O)C23CC(c4cn(CCNC(=O)[C@H]5CN(C(=O)CN6CCN(CC(=O)O)CCN(CC(=O)O)CCN(CC(=O)O)CC6)CCN5C(=O)[C@@H]5COCCN5C(=O)CCc5n[nH]c6ccccc56)nn4)(C2)C3)s1.[Lu+3] [Compound 108.1] | 2.5 to 10 nM | > 10 nM | 
23 | CC(CCCC(=O)N1CCOC[C@H]1C(=O)N[C@@H](CC(=O)N1CCN(C(=O)CN2CCN(CC(=O)O)CCN(CC(=O)O)CCN(CC(=O)O)CC2)C[C@@H]1C(=O)NCCn1cc(C23CC(C(=O)Nc4nnc(S(N)(=O)=O)s4)(C2)C3)nn1)C(N)=O)(c1ccc(O)cc1)c1ccc(O)cc1.[Lu+3] [Compound 107.44] | < 1 nM | > 10 nM | 
24 | NS(=O)(=O)c1nnc(NC(=O)C23CC(c4cn(CCNC(=O)[C@@H]5CN(C(=O)CN6CCN(CC(=O)O)CCN(CC(=O)O)CCN(CC(=O)O)CC6)CCN5C(=O)C[C@H](NC(=O)C[C@H](NCc5ccc(C6CC6)cc5)C(=O)O)C(=O)O)nn4)(C2)C3)s1.[Lu+3] [Compound 109.21] | < 1 nM | > 10 nM | 
